≈ marks a conversion by molar mass, not a printed value.

The GI50 is the concentration at which growth is held to half of that of the control. Low values mean more potent growth inhibition, high ones less potent growth inhibition. The TGI is the concentration giving total growth inhibition. Low values mean greater sensitivity of the cells, high ones lower sensitivity of the cells.

Assay [1] can be described thus: Cytotoxicity against human melanoma cells. Format: functional. The settings on record: Melanoma cell.
Assay [2] in a line: Cytotoxicity against human colon cancer cells. The format is functional. The settings on record: Cancer cell lines.
Where [3] appears, read: read-out: LC50 (the source's name).

Turning to `C#C[C@H](O)/C=C\CCCCCCCCCCCCCCCCCCCCCCCC/C=C/CCCCCCC/C=C/[C@@H](O)C#C` [VASCULYNE], the GI50 in assay [1] and in assay [2] was 0.2 µg/mL (≈ 0.321 µM) each time. In addition, the TGI in assay [1] and in assay [2] was 0.7 µg/mL (≈ 1.12 µM) each time. Besides, the CC50 in assay [1] (setting [3]) and in assay [2] (setting [3]) was 6.7 µg/mL (≈ 10.8 µM) throughout.

Values taken from ChEMBL document CHEMBL1151673, “Vasculyne, a new cytotoxic acetylenic alcohol from the marine sponge Cribrochalina vasculum” (1996).
